The text below walks through data of patent US8772312B2, “Heterocyclic compounds as CRTH2 receptor antagonists” (CSPC Zhongqi Pharmaceutical Technology (Shijiazhuang) Co., …, priority 2007, dated 2014).

Experiment [1] has as its target T1, CRTH2 (Homo sapiens, UniProt Q9Y5Y4).
T1 construct: host or cells: CHO-K1
T1 sequence (Q9Y5Y4 1-395): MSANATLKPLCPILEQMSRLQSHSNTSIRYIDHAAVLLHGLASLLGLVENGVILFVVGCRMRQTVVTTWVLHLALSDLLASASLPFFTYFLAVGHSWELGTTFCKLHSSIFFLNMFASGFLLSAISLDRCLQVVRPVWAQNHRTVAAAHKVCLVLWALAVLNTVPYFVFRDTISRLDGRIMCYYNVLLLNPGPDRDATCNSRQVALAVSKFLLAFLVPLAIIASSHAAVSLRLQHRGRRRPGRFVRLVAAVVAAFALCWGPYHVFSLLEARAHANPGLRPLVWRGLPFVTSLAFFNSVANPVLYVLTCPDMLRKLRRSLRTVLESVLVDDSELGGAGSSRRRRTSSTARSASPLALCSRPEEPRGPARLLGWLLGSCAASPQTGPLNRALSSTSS
The experiment can be described thus: MDS Prostanoid CRTH2 Binding Assay (Catalog #268030), radioligand binding. Conditions: 20 nM of tested compound; ligand 1 nM [3H]PGD2; human recombinant CHO-K1 cells; 2 hours @ 25° C. The protocol:
The CRTH2 binding affinity of compounds of Formula I were assayed by MDS Pharma Service using the following reagents and conditions:
• MDS Prostanoid CRTH2 Binding Assay (Catalog #268030): • Source: Human recombinant CHO-K1 cells • Ligand: 1 nM [^3H]

The target in experiment [2] is T1, CRTH2. Conditions: radioligand [3H] Prostaglandin D2; historical value of the MDS assay; cited from earlier work.

`CN(C1CCc2c(CC(=O)O)c3ccc(Cl)nc3n2C1)S(=O)(=O)c1ccc(F)cc1` (single isomer, unassigned) [Example 2A]: in experiment [1], the “% inhibition of PGD2 binding” value amounted to 97%. On the same count and under the same terms, the result for `CN(C1CCc2c(CC(=O)O)c3ccc(Cl)nc3n2C1)S(=O)(=O)c1ccc(F)cc1` (single isomer, unassigned) [Example 2B] reads 0%. On the same count and under the same terms, under `CN(C1CCc2c(CC(=O)O)c3cccnc3n2C1)S(=O)(=O)c1ccc(F)cc1` (single isomer, unassigned) [Example 4A] stands 91%; under `CN(C1CCc2c(CC(=O)O)c3cccnc3n2C1)S(=O)(=O)c1ccc(F)cc1` (single isomer, unassigned) [Example 4B], 0%. Take `CCCCC[C@H](O)/C=C/[C@H]1C(=O)C[C@H](O)[C@@H]1C/C=C\CCCC(=O)O` [PGD2, Prostaglandin D2]: the Kd in experiment [2] was 4.1 nM.

Usually Kd stands for a measure of binding affinity in units of concentration.
